One assay deals with MCF7. Description: Antiproliferative activity against human MCF7 cells after 48 hrs by MTT assay. In kind it is functional, cell-based. The following applies: MCF7, 48 h. A general note: Tetrazolium assays rely on reduction of a dye to a coloured formazan, in cell work by metabolically active cells.
Assay [1] deals with HepG2. Description: Antiproliferative activity against human HepG2 cells after 48 hrs by MTT assay. The following applies: HepG2, 48 h. It is filed as functional, cell-based.
The subject of a further assay is SW480. Kind of assay: Antiproliferative activity against human SW480 cells after 48 hrs by MTT assay. In kind it is functional, cell-based. Particulars: SW480, 48 h.
The test system of assay [2] is HepG2. Kind of assay: Induction of apoptosis in human HepG2 cells assessed as necrotic cells at IC50 after 48 hrs by Annexin V-FITC/propidium iodide staining based flow cytometry (reference value: 7.77%). In kind it is functional. In general terms: In flow cytometry, cells or beads pass a laser one at a time.
Assay [3] deals with HepG2. Description: Induction of apoptosis in human HepG2 cells assessed as late apoptotic cells at IC50 after 48 hrs by Annexin V-FITC/propidium iodide staining based flow cytometry (reference value: 18.1%). In kind it is functional.
In assay [4] the test system is HepG2. Kind of assay: Induction of apoptosis in human HepG2 cells assessed as early apoptotic cells at IC50 after 48 hrs by Annexin V-FITC/propidium iodide staining based flow cytometry (reference value: 11.7%). It is filed as functional.
Assay [5] has as its system HepG2. Description: Induction of apoptosis in human HepG2 cells assessed as viable cells at IC50 after 48 hrs by Annexin V-FITC/propidium iodide staining based flow cytometry (reference value: 62.4%). In kind it is functional.
Assay [6] deals with HepG2. Kind of assay: Induction of apoptosis in human HepG2 cells assessed as necrotic cells at 1.2 times IC50 after 48 hrs by Annexin V-FITC/propidium iodide staining based flow cytometry (reference value: 7.77%). It is filed as functional.
Assay [7] concerns HepG2. Description: Induction of apoptosis in human HepG2 cells assessed as late apoptotic cells at 1.2 times IC50 after 48 hrs by Annexin V-FITC/propidium iodide staining based flow cytometry (reference value: 18.1%). It is filed as functional.
For assay [8], the system named is HepG2. Kind of assay: Induction of apoptosis in human HepG2 cells assessed as early apoptotic cells at 1.2 times IC50 after 48 hrs by Annexin V-FITC/propidium iodide staining based flow cytometry (reference value: 11.7%). It is filed as functional.
Assay [9] has as its system HepG2. Kind of assay: Induction of apoptosis in human HepG2 cells assessed as viable cells at 1.2 times IC50 after 48 hrs by Annexin V-FITC/propidium iodide staining based flow cytometry (reference value: 62.4%). In kind it is functional.
Assay [10] has as its system HepG2. Kind of assay: Cell cycle arrest in human HepG2 cells assessed as accumulation at G1 phase at IC50 after 48 hrs by propidium iodide staining-based flow cytometry (reference value: 29.83%). It is filed as functional.
Assay [11] concerns HepG2. Description: Cell cycle arrest in human HepG2 cells assessed as accumulation at G1 phase at 1.2 times IC50 after 48 hrs by propidium iodide staining-based flow cytometry (reference value: 29.83%). It is filed as functional.
Assay [12] deals with HepG2. Kind of assay: Cell cycle arrest in human HepG2 cells assessed as accumulation at G2 phase at IC50 after 48 hrs by propidium iodide staining-based flow cytometry (reference value: 38.82%). It is filed as functional.
Assay [13] has as its system HepG2. Kind of assay: Cell cycle arrest in human HepG2 cells assessed as accumulation at G2 phase at 1.2 times IC50 after 48 hrs by propidium iodide staining-based flow cytometry (reference value: 38.82%). In kind it is functional.
For assay [14], the system named is HepG2. Kind of assay: Cell cycle arrest in human HepG2 cells assessed as accumulation at S phase at IC50 after 48 hrs by propidium iodide staining-based flow cytometry (reference value: 51.72%). It is filed as functional.
The test system of assay [15] is HepG2. Description: Cell cycle arrest in human HepG2 cells assessed as accumulation at S phase at 1.2 times IC50 after 48 hrs by propidium iodide staining-based flow cytometry (reference value: 51.72%). It is filed as functional.

≈ marks a conversion by molar mass, not a printed value.

For orientation: IC50 means the midpoint of a concentration-inhibition curve. For `Nc1nc(N2CCCCC2)sc1C(=O)/C=C/c1ccc(Br)cc1`, the IC50 with MCF7 turned out to be 25.6 µg/mL (≈ 65.3 µM); with HepG2 [1], 17.4 µg/mL (≈ 44.4 µM); in the assay on SW480 it was 31.6 µg/mL (≈ 80.5 µM).
Taken in the same sequence, the figures for `Nc1nc(N2CCOCC2)sc1C(=O)/C=C/c1ccc(Cl)cc1Cl` were 18.6 µg/mL (≈ 48.4 µM), 12.8 µg/mL (≈ 33.3 µM) and 33.2 µg/mL (≈ 86.4 µM).
Turning to `Nc1nc(N2CCOCC2)sc1C(=O)/C=C/c1ccc([N+](=O)[O-])cc1`, the IC50 in the assay on MCF7 amounted to 40 µg/mL (≈ 111 µM); in the assay with HepG2 [1], 27.6 µg/mL (≈ 76.6 µM); in the assay with SW480, 43.3 µg/mL (≈ 120 µM).
As for `Nc1nc(N2CCOCC2)sc1C(=O)/C=C/c1ccc(Cl)cc1`, the IC50 with MCF7 is over 50 µg/mL; in the assay on HepG2 [1], 35.8 µg/mL (≈ 102 µM); with SW480, 33.4 µg/mL (≈ 95.5 µM).
In the case of `Nc1nc(N2CCCCC2)sc1C(=O)/C=C/c1ccc(Cl)cc1`, the results for the IC50 in the assay on MCF7, with HepG2 [1] and in the assay with SW480 were 19.5 µg/mL (≈ 56.1 µM), 12 µg/mL (≈ 34.5 µM) and 29.4 µg/mL (≈ 84.5 µM), respectively. The Activity is listed as 18.5% in the assay on HepG2 [2]; 34.4% in the assay on HepG2 [3]; 2.84% with HepG2 [4]; 44.3% in the assay on HepG2 [5]; 17.2% with HepG2 [6]; 34.7% with HepG2 [7]. Further, the Activity amounted to 3.31% in the assay with HepG2 [8]; 44.8% with HepG2 [9]; 44.47% in the assay on HepG2 [10]; 48.58% in the assay with HepG2 [11]; 27.88% in the assay on HepG2 [12]; 37.65% in the assay on HepG2 [13]. In addition, the Activity was 28.24% in the assay on HepG2 [14] and 18.26% in the assay with HepG2 [15].
As to `Nc1nc(N2CCCCC2)sc1C(=O)/C=C/c1ccc([N+](=O)[O-])cc1`, the IC50 came to 14.6 µg/mL (≈ 40.7 µM) in the assay on MCF7, 15.4 µg/mL (≈ 43 µM) in the assay with HepG2 [1] and 25.6 µg/mL (≈ 71.4 µM) in the assay with SW480. Moreover, the Activity in the assay on HepG2 [2] was found to be 24.2%; in the assay with HepG2 [3], 27.7%; with HepG2 [4], 2.1%; in the assay on HepG2 [5], 46%; in the assay on HepG2 [6], 24.2%; in the assay with HepG2 [7], 47.1%. The Activity stood at 2.53% in the assay with HepG2 [8]; 26.1% in the assay on HepG2 [9]; 47.1% in the assay with HepG2 [10]; 54.18% with HepG2 [11]; 30.17% in the assay with HepG2 [12]; 25.23% in the assay on HepG2 [13]. Moreover, the Activity came out at 27.92% with HepG2 [14] and 33.47% in the assay on HepG2 [15].
With `Nc1nc(N2CCCC2)sc1C(=O)/C=C/c1ccc(Cl)cc1`, the IC50 turned out to be 24 µg/mL (≈ 71.9 µM) in the assay on MCF7, 27 µg/mL (≈ 80.9 µM) with HepG2 [1] and 19.9 µg/mL (≈ 59.6 µM) with SW480.
Taken in the same sequence, the figures for `COc1ccccc1/C=C/C(=O)c1sc(N2CCCC2)nc1N` were over 50 µg/mL, 35.1 µg/mL (≈ 107 µM) and 17 µg/mL (≈ 51.6 µM).
As to `Nc1nc(N2CCCC2)sc1C(=O)/C=C/c1ccc(Cl)cc1Cl`, the concentration for half-maximal inhibition (IC50) in the assay on MCF7 worked out at 12.6 µg/mL (≈ 34.2 µM); in the assay with HepG2 [1], 10.6 µg/mL (≈ 28.8 µM); in the assay with SW480, 18.4 µg/mL (≈ 50 µM). In addition, the Activity in the assay on HepG2 [2] is 40.8%; with HepG2 [3], 13.2%; in the assay with HepG2 [4], 1.43%; in the assay on HepG2 [5], 44.6%; in the assay with HepG2 [6], 24.4%; in the assay on HepG2 [7], 44.3%. Also, the Activity with HepG2 [8] turned out to be 7.12%; in the assay on HepG2 [9], 24.2%; in the assay with HepG2 [10], 22.09%; with HepG2 [11], 27.04%; in the assay with HepG2 [12] it was 64.84%; with HepG2 [13] it was 68.37%. The values for the Activity with HepG2 [14] and with HepG2 [15] were 14.64% and 16.34%, respectively.
Regarding `Nc1nc(N2CCCCC2)sc1C(=O)/C=C/c1ccc(Cl)cc1Cl`, the 50% inhibitory concentration (IC50) was determined as 25.5 µg/mL (≈ 66.7 µM) in the assay with MCF7, 22.9 µg/mL (≈ 59.9 µM) in the assay with HepG2 [1] and 36.8 µg/mL (≈ 96.3 µM) in the assay with SW480.
Turning to `Nc1nc(N2CCCCC2)sc1C(=O)/C=C/c1ccccc1`, the values for the IC50 with MCF7, in the assay with HepG2 [1] and with SW480 were 22.4 µg/mL (≈ 71.5 µM), 16.6 µg/mL (≈ 53 µM) and 28.1 µg/mL (≈ 89.7 µM), respectively.
Consider `Nc1nc(N2CCCC2)sc1C(=O)/C=C/c1ccc(Br)cc1`, for which the figures for the IC50 with MCF7, in the assay with HepG2 [1] and in the assay with SW480 were 41.3 µg/mL (≈ 109 µM), 30 µg/mL (≈ 79.3 µM) and 15.8 µg/mL (≈ 41.8 µM), respectively.
For `Nc1nc(N2CCOCC2)sc1C(=O)/C=C/c1ccc(Br)cc1` the same measures were over 50 µg/mL, over 50 µg/mL and 32.7 µg/mL (≈ 82.9 µM).
For `Nc1nc(N2CCOCC2)sc1C(=O)/C=C/c1ccccc1` the same measures were 34.7 µg/mL (≈ 110 µM), 21.4 µg/mL (≈ 67.9 µM) and 30.5 µg/mL (≈ 96.7 µM).
In the case of `Nc1nc(N2CCCC2)sc1C(=O)/C=C/c1ccccc1`, the IC50 in the assay on MCF7 amounted to 21.7 µg/mL (≈ 72.5 µM); with HepG2 [1], 29.6 µg/mL (≈ 98.9 µM); in the assay with SW480 it was 31.7 µg/mL (≈ 106 µM).
For `Nc1nc(N2CCCC2)sc1C(=O)/C=C/c1ccc([N+](=O)[O-])cc1` the same measures were 26.3 µg/mL (≈ 76.4 µM), 23.5 µg/mL (≈ 68.2 µM) and 22.4 µg/mL (≈ 65 µM).
Turning to `COc1cc([C@@H]2c3cc4c(cc3[C@@H](O[C@@H]3O[C@@H]5CO[C@@H](C)O[C@H]5[C@H](O)[C@H]3O)[C@H]3COC(=O)[C@H]23)OCO4)cc(OC)c1O` [ETOPOSIDE], the Activity with HepG2 [2] was 35.5%; with HepG2 [3], 24.7%; in the assay with HepG2 [4], 2.59%; with HepG2 [5] it was 37.1%.

The values are drawn from ChEMBL document CHEMBL4251651, “Synthesis and biological evaluation of 4-amino-5-cinnamoylthiazoles as chalcone-like anticancer agents” (Eur J Med Chem, 2018).
